Test results taken from US8748601B2, “Selective serine/threonine kinase inhibitors” (The Regents of the University of California, priority 2003, dated 2014).

What was measured:
[1] = system: RSK; assay: RSK modification by fmk-pa in primary mouse macrophages (click chemistry); format: cell-based; details: pretreated for 1 h, LPS-stimulated
Experimental: Confluent macrophages in 12-well plates were incubated in DMEM supplemented with 20 mM Hepes [pH 7.4] and 0.5% FBS for […] prior to treatment with the indicated concentrations of fmk-pa for 1 h at 37° C. After stimulation with either PMA ([…]) or LPS ([…]) for 30 min, cells were washed with cold PBS and harvested in PBS lysis buffer. Click chemistry was performed with TAMRA-N3 and proteins were subsequently analyzed by in-gel fluorescence scanning or Western blotting.
FIG. 11. Fmk-pa and click chemistry reveal the existence of a CTD-independent pathway for RSK Ser386 phosphorylation. […] Macrophages were cultured in 0.5% serum for 20 h and subsequently treated with the indicated concentrations of fmk-pa for 1 h. Cells were stimulated with either PMA (100 ng/mL) or LPS (1 mg/mL) for 30 min and harvested in PBS. Proteins were resolved by 10% SDS-PAGE and detected by Western blotting with antibodies to phospho-Ser386 RSK and total RSK2. […] Data represent mean±s.e.m. from 3 independent experiments. […] Proteins were resolved by 10% SDS-PAGE and detected by in-gel fluorescence scanning. […] Eluted proteins were resolved by 10% SDS-PAGE and detected by Western blotting with streptavidin-HRP or antibodies to RSK1, RSK2, and phospho-Ser386 RSK.

[2] = system: rpS6 Ser235/236 phosphorylation; assay: PMA-stimulated rpS6 Ser235/236 phosphorylation in HEK-293 cells; format: cell-based; details: 300 nM fmk-pa together with rapamycin, HEK-293, PMA
Experimental: (§1) Confluent HEK-293 cells in 12-well plates were deprived of serum for 2 h and subsequently treated with the indicated concentrations of inhibitors for 1 h at 37° C. After stimulation with PMA ([…]) for 30 min, cells were washed with cold PBS and harvested in either PBS lysis buffer (FIG. 9c) or hypertonic lysis buffer (FIG. 10). Click chemistry was performed with TAMRA-N3 in lysates from cells treated with fmk-pa. Proteins were analyzed by in-gel fluorescence scanning or Western blotting.
Serum-starved HEK-293 cells were treated with the indicated concentrations of rapamycin in the absence (left lanes) or presence (right lanes) of 300 nM fmk-pa for 1 h and stimulated with PMA (100 ng/mL) for 30 min. Proteins were resolved by 10% SDS-PAGE and detected by Western blotting with antibodies to phospho-Ser235/236 rpS6, phospho-Ser386 RSK, and total RSK2. […] Percent rpS6 Ser235/236 phosphorylation was determined by quantification of Western blots (e.g., FIG. 3a) relative to DMSO controls using ImageJ. Data represent mean±s.e.m. from 3 independent experiments.

[3] = biological target: T1, Rsk2 CTD (Homo sapiens, UniProt P51812); assay: Rsk2 CTD in vitro kinase assay, wild type; format: biochemical; details: read-out: IC50 for RSK2
T1 construct: We tested the halomethylketones against the Rsk2 CTD by adapting an in vitro kinase assay; made in house
Text: We tested the halomethylketones against the Rsk2 CTD by adapting an in vitro kinase assay developed by Chrestensen and Sturgill, J, Biol. Chem. 277:27733 (2002).

[4] = system: Rsk; assay: Inhibition of RSK by fmk-pa (click chemistry, PMA-stimulated HEK-293 cells); format: cell-based; details: FIG. 9
Experimental: Click reactions were performed as previously described by Speers et al., “Profiling enzyme activities in vivo using click chemistry methods”. Chem Biol 11, 535-46 (2004). Briefly, RSK2 CTD (30 nM) pretreated with the indicated concentrations of fmk-pa, or lysates from fmk-pa-pretreated cells were incubated with TAMRA-N3 or biotin-N3 ([…]), TCEP (1 mM), CuSO4 (1 mM), and TBAT ([…]) in PBS [pH 7.4] containing 1% SDS for 1 h at room temperature.
as §1
RSK2 CTD was treated with the indicated concentrations of fmk-pa for 1 h followed by […] fmk-BODIPY for 1 h. After click conjugation with TAMRA-N3 (see Methods), proteins were resolved by 10% SDS-PAGE and detected by sequential in-gel fluorescence scanning using filters specific for TAMRA and BODIPY. […] Proteins were resolved by 10% SDS-PAGE and detected by in-gel fluorescence scanning (left) and Coomassie blue staining (right).

T1 sequence (P51812 422-679 limits assumed): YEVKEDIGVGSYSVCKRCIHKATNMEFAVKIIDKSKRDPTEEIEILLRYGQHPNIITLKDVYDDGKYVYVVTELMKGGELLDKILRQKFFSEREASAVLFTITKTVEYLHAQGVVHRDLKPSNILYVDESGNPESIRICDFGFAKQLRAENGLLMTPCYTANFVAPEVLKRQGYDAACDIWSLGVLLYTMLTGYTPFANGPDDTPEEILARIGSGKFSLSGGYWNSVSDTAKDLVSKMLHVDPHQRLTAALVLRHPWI

IC50 [3]: < 1000 nM
Structure (SMILES): C#CCNCCCn1c(C(=O)CF)c(-c2ccc(C)cc2)c2c(N)ncnc21 [propargylamine-fmk 18]
RSK modification in intact macrophages [1]: saturable RSK modification | Inhibition of rpS6 phosphorylation [2]: additive inhibition | Inhibition of RSK [4]: irreversible, selective, and potent inhibition
